Measured values published in patent US10800792B2, “Inhibitors of Bruton's tyrosine kinase and method of their use” (JANSSEN PHARMACEUTICA NV, priority 2015, dated 2020).
Read-outs that look alike come from different tables or passages of the source. Blank lines part the entries; values can stand above or below the molecule they belong to.

Target: unphosphorylated-BTK kinase domain (UP-BTK), GST-tagged human BTK (389-659aa) (Homo sapiens (Human), UniProt Q06187)
Test: BTK kinase Lanthascreen binding assay
Conditions: 60 minutes incubation, pIC50 = negative log of the IC50 in molar; for IC50: read-out: BTK_I_binding pIC50 (converted)
Method in brief: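 Values are pIC50, i.e. negative log of IC50 in molar, derived from concentration–response fitting. Each compound competes with a fluorescently labelled tracer for the unphosphorylated kinase domain.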

[1] = Lanthascreen tracer competition
[2] = unphosphorylated-BTK kinase domain, 50 nM Tracer 236

unphosphorylated-BTK kinase domain (UP-BTK), GST-tagged human BTK (389-659aa), sequence (Q06187 389-659): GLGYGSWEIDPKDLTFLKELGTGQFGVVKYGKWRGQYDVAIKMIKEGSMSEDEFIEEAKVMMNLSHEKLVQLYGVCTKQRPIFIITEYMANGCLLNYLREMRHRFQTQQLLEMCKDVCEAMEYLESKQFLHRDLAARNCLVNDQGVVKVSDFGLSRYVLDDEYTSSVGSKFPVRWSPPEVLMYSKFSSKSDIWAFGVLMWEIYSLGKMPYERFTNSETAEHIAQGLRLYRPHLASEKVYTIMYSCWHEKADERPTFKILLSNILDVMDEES

BTK_I_binding pIC50 [1]: <6
Compound: C=CC(=O)N1CCC[C@@H](NC(=O)c2sc3nccc4c3c2NC(=O)N4c2ccc(OC3CCOCC3)cc2C)C1 (single isomer, unassigned) [Example 814, (R)—N-(1-Acryloylpiperidin-3-yl)-5-(*R)-(2-methyl-4-((tetrahydro-2H-pyran-4-yl)oxy)phenyl)-4-oxo-4,5-dihydro-3H-1-thia-3,5,8-triazaacenaphthylene-2-carboxamide]

BTK_I_binding pIC50 [1]: 8.0
Compound: C=CS(=O)(=O)N1CC[C@@H](NC(=O)c2sc3nccc4c3c2NC(=O)N4c2ccc(Oc3ccccc3)cc2C)C1 (single isomer, unassigned) [Example 834, (R)-5-(*S)-(2-Meth-4-phenoxyphenyl)-4-oxo-N-(1-(vinylsulfonyl)pyrrolidin-3-yl)-4,5-dihydro-3H-1-thia-3,5,8-triazaacenaphthylene-2-carboxamide]

BTK_I_binding pIC50 [1]: 7.6
Compound: Cc1cc(Oc2ccccc2)ccc1N1C(=O)Nc2c(C(=O)N[C@@H]3CCCN(C(=O)/C=C/CN4CCCC4)C3)sc3nccc1c23 (single isomer, unassigned) [Example 845, (R,E)-5-(*S)-(2-Methyl-4-phenoxyphenyl)-4-oxo-N-(1-(4-(pyrrolidin-1-yl)but-2-enoyl)piperidin-3-yl)-4,5-dihydro-3H-1-thia-3,5,8-triazaacenaphthylene-2-carboxamide]

BTK_I_binding pIC50 [1]: 7.3
Compound: Cc1cc(Oc2ccccc2)ccc1N1C(=O)Nc2c(C(=O)N[C@@H]3CCCN(C(=O)/C(C#N)=C/C(C)(C)C)C3)sc3nccc1c23 (single isomer, unassigned) [Example 866, (R,E)-N-(1-(2-Cyano-4,4-dimethylpent-2-enoyl)piperidin-3-yl)-5-(*S)-(2-methyl-4-phenoxyphenyl)-4-oxo-4,5-dihydro-3H-1-thia-3,5,8-triazaacenaphthylene-2-carboxamide]

BTK_I_binding pIC50 [2]: 7.5
Compound: C=CC(=O)N1CC[C@@H](NC(=O)c2sc3nccc4c3c2NC(=O)N4c2cnc(OC(C)C)cc2C)C1 (single isomer, unassigned) [Example 959, (R)—N-(1-Acryloylpyrrolidin-3-yl)-5-(*S)-(6-isopropoxy-4-methylpyridin-3-yl)-4-oxo-4,5-dihydro-3H-1-thia-3,5,8-triazaacenaphthylene-2-carboxamide]

BTK_I_binding pIC50 (50 nM Tracer 236): 7.9
Compound: C=CC(=O)N1CC(F)C[C@@H](NC(=O)c2sc3nccc4c3c2NC(=O)N4c2ccc(Oc3ccccc3)cc2C)C1 (stereo in doubt) [Example 3, N-((3R,5S)-1-Acryloyl-5-fluoropiperidin-3-yl)-5-(2-methyl-4-phenoxyphenyl)-4-oxo-4,5-dihydro-3H-1-thia-3,5,8-triazaacenaphthylene-2-carboxamide]

BTK_I_binding pIC50 (50 nM Tracer 236): 7.5
Compound: Cc1cc(Oc2ccccc2)ccc1N1C(=O)Nc2c(C(=O)NC3CCCN(C(=O)/C=C/CO)C3)sc3nccc1c23 (stereo in doubt) [Example 25, (S,E)-N-(1-(4-Hydroxybut-2-enoyl)piperidin-3-yl)-5-(2-methyl-4-phenoxyphenyl)-4-oxo-4,5-dihydro-3H-1-thia-3,5,8-triazaacenaphthylene-2-carboxamide]

IC50 (50 nM Tracer 236): 25.1 nM
Compound: C=CC(=O)N1CC(OC)[C@@H](NC(=O)c2sc3nccc4c3c2NC(=O)N4c2ccc(Oc3ccccc3)cc2C)C1 (stereo in doubt) [Example 34, N-((3S,4R)-1-Acryloyl-4-methoxypyrrolidin-3-yl)-5-(2-methyl-4-phenoxyphenyl)-4-oxo-4,5-dihydro-3H-1-thia-3,5,8-triazaacenaphthylene-2-carboxamide]

BTK_I_binding pIC50 (50 nM Tracer 236): 7.5
Compound: C=CC(=O)N1CC(O)[C@@H](NC(=O)c2sc3nccc4c3c2NC(=O)N4c2ccc(Oc3ccccc3)cc2C)C1 (stereo in doubt) [Example 50, N-((3S,4S)-1-Acryloyl-4-hydroxypyrrolidin-3-yl)-5-(2-methyl-4-phenoxyphenyl)-4-oxo-4,5-dihydro-3H-1-thia-3,5,8-triazaacenaphthylene-2-carboxamide]

BTK_I_binding pIC50 (50 nM Tracer 236): 6.8
Compound: Cc1cc(Oc2ccccc2F)ccc1N1C(=O)Nc2c(C(=O)NC3CCCN(C)C3)sc3nccc1c23 (stereo in doubt) [Example 57, (R)-5-(4-(2-Fluorophenoxy)-2-methylphenyl)-N-(1-methylpiperidin-3-yl)-4-oxo-4,5-dihydro-3H-1-thia-3,5,8-triazaacenaphthylene-2-carboxamide]

IC50 [1]: 7.94 nM
Compound: C=CC(=O)N1CC(NC(=O)c2sc3nccc4c3c2NC(=O)N4c2ccc(Oc3ccccc3)cc2)C[C@@H](O)C1 (stereo in doubt) [Example 589, N-((3R,5R)-1-Acryloyl-5-hydroxypiperidin-3-yl)-4-oxo-5-(4-phenoxyphenyl)-4,5-dihydro-3H-1-thia-3,5,8-triazaacenaphthylene-2-carboxamide]

Compound: Cc1cc(Oc2ccccc2)ccc1N1C(=O)Nc2c(C(=O)NC3CCCNC3)sc3nccc1c23 (stereo in doubt) [Example 869, (R)-5-(2-Methyl-4-phenoxyphenyl)-4-oxo-N-(piperidin-3-yl)-4,5-dihydro-3H-1-thia-3,5,8-triazaacenaphthylene-2-carboxamide]
IC50 [1]: 50.1 nM

Compound: Cc1cc(Oc2ccccc2)ccc1N1C(=O)Nc2c(C(=O)NC3CCCN(C(=O)CC#N)C3)sc3nccc1c23 (stereo in doubt) [Example 874, (R)—N-(1-(2-cyanoacetyl)piperidin-3-yl)-5-(2-methyl-4-phenoxyphenyl)-4-oxo-4,5-dihydro-3H-1-thia-3,5,8-triazaacenaphthylene-2-carboxamide]
IC50 [1]: 63.1 nM

BTK_I_binding pIC50 [2]: 6.7
Compound: O=C(NC1CCCN(C(=O)CCCl)C1)c1sc2nccc3c2c1NC(=O)N3c1ccc(Oc2ccccc2)cn1 (stereo in doubt) [Example 906, (R)—N-(1-(3-Chloropropanoyl)piperidin-3-yl)-4-oxo-5-(5-phenoxypyridin-2-yl)-4,5-dihydro-3H-1-thia-3,5,8-triazaacenaphthylene-2-carboxamide]

BTK_I_binding pIC50 [2]: 6.1
Compound: O=C(NC1CCNC1)c1sc2nccc3c2c1NC(=O)N3c1ccc(Oc2ccccc2)cc1 (stereo in doubt) [Example 934, (S)-4-Oxo-5-(4-phenoxyphenyl)-N-(pyrrolidin-3-yl)-4,5-dihydro-3H-1-thia-3,5,8-triazaacenaphthylene-2-carboxamide]

IC50 (50 nM Tracer 236): 20 nM
Compound: C=CC(=O)N1C[C@H](F)C[C@@H](NC(=O)c2sc3nccc4c3c2NC(=O)N4c2ccc(Oc3ccccc3)cc2C)C1 [Example 1, N-((3R,5R)-1-Acryloyl-5-fluoropiperidin-3-yl)-5-(2-methyl-4-phenoxyphenyl)-4-oxo-4,5-dihydro-3H-1-thia-3,5,8-triazaacenaphthylene-2-carboxamide]

BTK_I_binding pIC50 (50 nM Tracer 236): 7.7
Compound: C=CC(=O)N1CCC[C@@H](NC(=O)c2sc3nccc4c3c2NC(=O)N4c2ccc(Oc3ccccc3)c(F)c2C)C1 [Example 4, (R)—N-(1-Acryloylpiperidin-3-yl)-5-(3-fluoro-2-methyl-4-phenoxyphenyl)-4-oxo-4,5-dihydro-3H-1-thia-3,5,8-triazaacenaphthylene-2-carboxamide]

Compound: C=CC(=O)N1C[C@H](O)C[C@@H](NC(=O)c2sc3nccc4c3c2NC(=O)N4c2ccc(Oc3ccccc3)cc2C)C1 [Example 6, N-((3R,5R)-1-Acryloyl-5-hydroxypiperidin-3-yl)-5-(2-methyl-4-phenoxyphenyl)-4-oxo-4,5-dihydro-3H-1-thia-3,5,8-triazaacenaphthylene-2-carboxamide]
IC50 (50 nM Tracer 236): 12.6 nM

IC50 (50 nM Tracer 236): 12.6 nM
Compound: C=CC(=O)N1CC[C@@H](NC(=O)c2sc3nccc4c3c2NC(=O)N4c2ccc(Oc3ccccc3)c(F)c2C)C1 [Example 7, (R)—N-(1-Acryloylpyrrolidin-3-yl)-5-(3-fluoro-2-methyl-4-phenoxyphenyl)-4-oxo-4,5-dihydro-3H-1-thia-3,5,8-triazaacenaphthylene-2-carboxamide]

IC50 (50 nM Tracer 236): 15.8 nM
Compound: C=CC(=O)N1C[C@H](NC(=O)c2sc3nccc4c3c2NC(=O)N4c2ccc(Oc3ccccc3)cc2C)C[C@@H](OC)C1 [Example 8, N-((3R,5R)-1-Acryloyl-5-methoxypiperidin-3-yl)-5-(2-methyl-4-phenoxyphenyl)-4-oxo-4,5-dihydro-3H-1-thia-3,5,8-triazaacenaphthylene-2-carboxamide]

IC50 (50 nM Tracer 236): 7.94 nM
Compound: C=CC(=O)N1CCC[C@@H](NC(=O)c2sc3nccc4c3c2NC(=O)N4c2ccc(Oc3ccccc3)cc2F)C1 [Example 10, (R)—N-(1-Acryloylpiperidin-3-yl)-5-(2-fluoro-4-phenoxyphenyl)-4-oxo-4,5-dihydro-3H-1-thia-3,5,8-triazaacenaphthylene-2-carboxamide]

BTK_I_binding pIC50 (50 nM Tracer 236): 7.9
Compound: C=CC(=O)N1CC[C@@H](NC(=O)c2sc3nccc4c3c2NC(=O)N4c2ccc(Oc3ccccc3)cc2C)C1 [Example 11, (R)—N-(1-Acryloylpyrrolidin-3-yl)-5-(2-methyl-4-phenoxyphenyl)-4-oxo-4,5-dihydro-3H-1-thia-3,5,8-triazaacenaphthylene-2-carboxamide]

BTK_I_binding pIC50 (50 nM Tracer 236): 7.7
Compound: C=CC(=O)N1CC[C@@H](NC(=O)c2sc3nccc4c3c2NC(=O)N4c2ccc(Oc3ccccc3)cc2Cl)C1 [Example 12, (R)—N-(1-Acryloylpyrrolidin-3-yl)-5-(2-chloro-4-phenoxyphenyl)-4-oxo-4,5-dihydro-3H-1-thia-3,5,8-triazaacenaphthylene-2-carboxamide]

Compound: C=CC(=O)N1C[C@@H](O)C[C@@H](NC(=O)c2sc3nccc4c3c2NC(=O)N4c2ccc(Oc3ccccc3)cc2C)C1 [Example 13, N-((3R,5S)-1-Acryloyl-5-hydroxypiperidin-3-yl)-5-(2-methyl-4-phenoxyphenyl)-4-oxo-4,5-dihydro-3H-1-thia-3,5,8-triazaacenaphthylene-2-carboxamide]
IC50 (50 nM Tracer 236): 15.8 nM
